Experimental findings from patent US20180369264A1, “COMBINATION OF A CARDIAC STEROID AND AN AKT INHIBITOR FOR THE TREATMENT OF CARDIOVASCULAR DISEASES AND DISORDERS” (YISSUM RESEARCH DEVELOPMENT COMPANY OF THE HEBREW …, priority 2015, published 2018) are described below.

Like-named read-outs stand apart in the source and are kept apart here.

For assay [1], the system named is wild-type zebrafish larvae heart. The class given is in vivo, zebrafish (Danio rerio). Here is the method: Experiments were performed on wild-type (WT, AB strain) zebrafish (Danio rerio). The fish were maintained in accordance with the principles established by the NIH. […] The fish were kept in swimming medium (E3 medium) in small aquaria at 28° C. and maintained under a 14h: 10h light:dark cycle. The zebrafish larvae were maintained in the presence of 0.1% methylene blue (M9140, Sigma-Aldrich Inc, Israel) at 28° C. All measurements were taken in embryos at 72 hours post fertilization (hpf).
Ouabain, bufalin, digoxin, acetylcholine, carbachol, […] (pp2) and U0126 (1,4-diamino-2,3-dicyano-1,4-bis(2-aminophenylthio)butadiene) were purchased from Sigma-Aldrich Inc., Israel. The compounds were dissolved in egg water (0.3 g Instant Ocean Salt in distilled water) to a final selected concentration, as specified in the following examples. […]
Filming process Zebrafish larvae heart imaging was performed using an Olympus CKX41 (Japan) […] microscope with ×10 or ×20 magnification, and integrated incandescent illumination. A FastCam imi-tech (Korea) high speed digital camera with 640×480 pixel gray scale image sensor was mounted on the microscope, using ImCam software (IMI Technology, Co. Ltd) for high speed video recording. The larvae were anesthetized by placing them in filming/anesthetizing medium. Each larva in 0.5 ml filming/anesthetizing medium was transferred to a 96-well tissue culture plate at room temperature and sequential images of the heart were obtained, with the larvae positioned on their side, at 80 fps during 10 seconds with a shutter speed of 0.016 seconds.
Physiological parameters of cardiovascular performance, as indicated hereinbelow, were evaluated in the zebrafish larvae. Image analysis applications ImageJ (NIH, USA) were used, allowing the delineation of the endomyocardial border at the end of systole or end of diastole to define the ventricular area. Sequential still frames were analyzed to capture ventricular end-systole and end-diastole images. End Systolic Area (ESA, FIG. 1B) and End Diastolic Area (EDA, FIG. 1C) were used to calculate Fractional Area Change (FAC), according to the equation: FAC=(EDA-ESA)/EDA*100. The Ejection Fraction (EF) was determined by an independent estimate of ventricular volume. This was achieved by placing scan lines across the midventricular short axis (SA) and long axis (LA) at the end of systole (FIG. 1D) and diastole (FIG. 1E). […] EF was then calculated according to the equation: EF=(EDV-ESV)/EDV*100. Heart rate (HR) was measured in beats per minute. Cardiac output (CO) was calculated according to the equation: CO=(EDV-ESV)*HR. A minimum of five sequential pairs of systolic and diastolic cycles were measured and analyzed in 9-12 larvae for each treatment.

For assay [2], the system named is Ca^2+ transients in wt zebrafish isolated adult heart. The assay can be described thus: Ca^2+ transients in wt zebrafish isolated adult heart. The note with it: for Amplitude (Maximal deflection from baseline) / Area (Area under the transient relative to baseline) / Decay slope (−Δ Fluorescence in the linear phase/sec) / Rate / Rise slope (+Δ Fluorescence in the linear phase/sec): Ouabain 200 μM, MK-2206 1 nM. On the procedure: Spontaneous Ca^2+ transients were measured in isolated hearts from adult zebrafish. The zebrafish were stunned by a blow to the head and the hearts were removed quickly and placed in Dulbecco's Modified Eagle's Medium (DMEM) containing 10% Fetal Bovine Serum (FBS) at room temperature. A total 3-5 hearts were placed in a small Petri dish containing 100 μl Krebs-Ringer's solution (119 mM NaCl, 2.5 mM KCl, 1 mM NaH2PO4, 2.5 mM CaCl2, 1.3 mM MgCl2, 20 mM HEPES and 11 mM D-glucose) with 0.01 mM Fura-2 AM (Biotium, Inc., CA, USA) in DMEM-FBS. Following incubation for 10 min (37° C., 5% CO2), 150 μl of Krebs-Ringer's solution were added to the Petri dish which was incubated for an additional 30 minutes. The dye was removed from the solution by two incubations (10 minutes each, room temperature) in DMEM-FBS solution. Intracellular Ca^2+ transients were measured in stabilizing medium containing 1% low-melt agarose in Krebs-Ringer's solution. The hearts were kept for 30 minutes in the presence of MK-2206 (or saline) and then underwent excitation/emission cycles for 2 minutes at 340 and 380 nm with 510 nm emission using a PTI fluorimetric system (Photon Technology International, Madison, USA). Ouabain was then added and the excitation/emission cycles were monitored for 8 minutes. The Ca^2+ levels are presented as the ratio of 340/380 nm fluorescence emission.

In a further assay the test system is ERK. The assay can be described thus: ERK phosphorylation in adult zebrafish heart (Western blot). The class given is in vivo. As to conditions: wt adult zebrafish, 1 μM in swimming media, 5 minutes. Here is the method: (§1) Adult zebrafish (˜12-months-old) were transferred to swimming medium containing 1 μM of CS drugs, as specified in the following examples. At various time points (5-30 min), as indicated in the following examples, the zebrafish were transferred to perfusion buffer and the hearts were immediately removed and transferred to RIPA lysis buffer (Sigma-Aldrich), and protease inhibitor cocktail (P8340, Sigma-Aldrich), at a 1:100 dilution). The tissue was homogenized in an ultrasonic homogenizer (Microson, NY, USA) and aliquots of the homogenate were stored at −70° C. until used.
Protein dilution and separation on SDS-PAGE electrophoresis, their transfer to a polyvinylidene fluoride membrane were carried out. […] The membranes were washed with TBS containing 0.1% Tween and exposed to horseradish peroxidase-conjugated secondary goat anti-rabbit IgG antibody (1:50,000). The membranes were stripped prior to their exposure to a different antibody. Detection was carried out with the aid of a Luminata™ Crescendo Western HRP Substrates, according to the manufacturer's instructions.
(In general: A western blot detects proteins with antibodies after separation by electrophoresis.)

The subject of another assay is Akt. The assay can be described thus: Akt phosphorylation in adult zebrafish heart (Western blot). Type of assay: in vivo. As to conditions: wt adult zebrafish, 1 μM in swimming media, 5 minutes. Here is the method:
as §1
Protein dilution and separation on SDS-PAGE electrophoresis, their transfer to a polyvinylidene fluoride membrane were carried out. The membranes were incubated for 1 hour at room temperature with one of the specific antibodies against Phospho-p44/42 MAPK (Erk1/2) (Thr202/Tyr204), Rabbit mAb #4370 (Cell signaling) or Phospho-Akt (Ser473) (193H12), Rabbit mAb #4058 (Cell signaling), at a 1:1000 dilution in TBS containing 0.1% Tween. The membranes were washed with TBS containing 0.1% Tween and exposed to horseradish peroxidase-conjugated secondary goat anti-rabbit IgG antibody (1:50,000). The membranes were stripped prior to their exposure to a different antibody. Detection was carried out with the aid of a Luminata™ Crescendo Western HRP Substrates, according to the manufacturer's instructions.

[3] abbreviates: wt larvae, 10 nM MK-2206, 1 nM CS.

Consider `NC1(c2ccc(-c3nc4ccn5c(=O)[nH]nc5c4cc3-c3ccccc3)cc2)CCC1` [MK-2206], for which, in assay [1] (PP2 50 nM, U0126 1 μM, MK-2206 10 nM for 2 hours), the “effect of inhibitor alone on heart function / basal contractility” value is “did not affect heart contractility parameters”. For the same compound, in assay [1] (setting [3]), the “effect on CS-induced increase in heart contractility (FAC and EF) compared with CS in the absence of the inhibitor” value is given as “doubling of the CS-induced increase in heart contractility”; the “effect on heart rate of MK-2206 with CS” value is “not accompanied by any effect on heart rate”. In assay [2], the “Amplitude (Maximal deflection from baseline)” value was 4.8 ± 0.13, the “Area (Area under the transient relative to baseline)” value is given as 2.81 ± 0.19, the “Decay slope (−Δ Fluorescence in the linear phase/sec)” value was 4.65 ± 0.54 and the Rate is recorded as 48 ± 4.8 wave/min. Moreover, the “Rise slope (+Δ Fluorescence in the linear phase/sec)” value in assay [2] stood at 1.65 ± 0.28.
Turning to `C[C@@H]1O[C@@H](O[C@H]2C[C@@H](O)[C@]3(CO)[C@H]4[C@H](O)C[C@]5(C)[C@@H](C6=CC(=O)OC6)CC[C@]5(O)[C@@H]4CC[C@]3(O)C2)[C@H](O)[C@H](O)[C@H]1O` [ouabain, 3-(alpha-L-Rhamnopyranosyloxy)-1beta,5beta,11alpha,14,19-pentahydroxy-5beta-card-20(22)-enolide], the “maximal increase in CO” value in assay [1] (0.2 nM, 90 minutes) was 38±3.68%. Besides, in assay [1] (1 nM), the “effect on force of contraction” value was “increased significantly the force of contraction” and the “effect on heart rate” value is listed as “without affecting heart rate”. Moreover, in assay [1] (0.05-0.4 nM, 90 minutes), the “effect on heart rate” value is given as “no change in heart rate”. Besides, the “concentration producing a significant increase in heart contractility” value in assay [1] (added to larvae swimming medium) is reported as 0.1 nM. Besides, the “effect on heart force of contraction (FAC, EF, CO)” value in assay [1] (low concentrations (ouabain 0.05-0.4 nM), 90 minutes) is “significant increase in the heart force of contraction in a dose-dependent manner”. In addition, in the assay with ERK, the “increase in ERK phosphorylation in the heart” value amounted to 130±17.95%. Also, the “increase in Akt phosphorylation in the heart” value in the assay on Akt was determined as 100±20.06%. Besides, in assay [2] (200 μM ouabain), the “increase in amplitude of the Ca^2+ transients” value is given as 27%, the “increase in decay slope of the Ca^2+ transients” value worked out at 86% and the “increase in rise slope of the Ca^2+ transients” value is on record as 61%. In assay [2], the “Amplitude (Maximal deflection from baseline)” value amounted to 6.59 ± 0.71, the “Area (Area under the transient relative to baseline)” value was 2.94 ± 0.44, the “Decay slope (−Δ Fluorescence in the linear phase/sec)” value turned out to be 20 ± 3.51 and the Rate is listed as 52 ± 6.8 wave/min. Also, in assay [2], the “Rise slope (+Δ Fluorescence in the linear phase/sec)” value came to 7.84 ± 2.02.
